Data on two molecules can be found in patent US4276378A, “High sensitivity assays for angiotensin converting enzyme” (priority 1977, dated 1981).

Peptide text beside a SMILES is read from it. * marks the point of attachment. Bz = O=C(c1ccccc1)*

Experiment [1] deals with T1, Guinea pig urinary ACE (Cavia porcellus, UniProt H0UWL7).
T1 sequence (H0UWL7 33-1302): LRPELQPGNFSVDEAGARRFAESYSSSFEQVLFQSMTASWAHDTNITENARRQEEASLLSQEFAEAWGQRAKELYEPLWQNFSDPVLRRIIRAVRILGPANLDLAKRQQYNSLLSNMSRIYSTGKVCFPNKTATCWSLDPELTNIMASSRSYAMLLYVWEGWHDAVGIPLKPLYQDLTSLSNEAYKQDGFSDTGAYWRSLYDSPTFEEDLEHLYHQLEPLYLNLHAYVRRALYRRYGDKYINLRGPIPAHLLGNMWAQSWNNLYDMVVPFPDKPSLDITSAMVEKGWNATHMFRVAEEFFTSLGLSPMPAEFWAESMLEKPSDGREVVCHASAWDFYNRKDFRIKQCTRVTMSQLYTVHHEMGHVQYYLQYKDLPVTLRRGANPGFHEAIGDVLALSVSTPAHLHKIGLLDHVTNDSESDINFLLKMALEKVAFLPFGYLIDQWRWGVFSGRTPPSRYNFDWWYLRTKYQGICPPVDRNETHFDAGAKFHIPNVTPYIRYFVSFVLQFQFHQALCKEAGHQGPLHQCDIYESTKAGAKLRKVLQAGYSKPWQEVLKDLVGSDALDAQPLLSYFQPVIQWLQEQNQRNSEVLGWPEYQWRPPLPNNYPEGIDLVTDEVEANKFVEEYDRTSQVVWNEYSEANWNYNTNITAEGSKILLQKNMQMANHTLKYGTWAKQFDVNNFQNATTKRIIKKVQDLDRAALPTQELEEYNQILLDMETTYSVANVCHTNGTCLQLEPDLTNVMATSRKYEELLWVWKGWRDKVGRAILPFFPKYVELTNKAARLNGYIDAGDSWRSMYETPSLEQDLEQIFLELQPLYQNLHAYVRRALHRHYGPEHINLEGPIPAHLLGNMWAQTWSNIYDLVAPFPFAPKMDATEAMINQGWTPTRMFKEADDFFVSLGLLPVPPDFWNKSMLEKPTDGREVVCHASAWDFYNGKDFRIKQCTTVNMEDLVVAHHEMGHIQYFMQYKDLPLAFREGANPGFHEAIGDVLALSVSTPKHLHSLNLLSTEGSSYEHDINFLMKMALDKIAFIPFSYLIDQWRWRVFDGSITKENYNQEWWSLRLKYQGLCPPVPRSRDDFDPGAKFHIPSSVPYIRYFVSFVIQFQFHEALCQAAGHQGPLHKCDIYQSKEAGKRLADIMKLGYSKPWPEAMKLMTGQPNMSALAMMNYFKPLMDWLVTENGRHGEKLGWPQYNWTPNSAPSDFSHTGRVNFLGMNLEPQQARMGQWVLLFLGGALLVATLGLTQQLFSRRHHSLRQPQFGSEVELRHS
Description: Sulfate and chloride effects on substrate hydrolysis (Example 3). The class given is biochemical. As to conditions: 37° C.

Experiment [2] relates to ACE from rabbit lung. As to conditions: removal of sodium chloride from the reaction medium; cited from earlier work.
The target of experiment [3] is ACE (Homo sapiens, UniProt P12821). Conditions: chloride absent; cited from earlier work.
ACE (Homo sapiens, UniProt P12821), sequence (P12821 30-1306, species assumed): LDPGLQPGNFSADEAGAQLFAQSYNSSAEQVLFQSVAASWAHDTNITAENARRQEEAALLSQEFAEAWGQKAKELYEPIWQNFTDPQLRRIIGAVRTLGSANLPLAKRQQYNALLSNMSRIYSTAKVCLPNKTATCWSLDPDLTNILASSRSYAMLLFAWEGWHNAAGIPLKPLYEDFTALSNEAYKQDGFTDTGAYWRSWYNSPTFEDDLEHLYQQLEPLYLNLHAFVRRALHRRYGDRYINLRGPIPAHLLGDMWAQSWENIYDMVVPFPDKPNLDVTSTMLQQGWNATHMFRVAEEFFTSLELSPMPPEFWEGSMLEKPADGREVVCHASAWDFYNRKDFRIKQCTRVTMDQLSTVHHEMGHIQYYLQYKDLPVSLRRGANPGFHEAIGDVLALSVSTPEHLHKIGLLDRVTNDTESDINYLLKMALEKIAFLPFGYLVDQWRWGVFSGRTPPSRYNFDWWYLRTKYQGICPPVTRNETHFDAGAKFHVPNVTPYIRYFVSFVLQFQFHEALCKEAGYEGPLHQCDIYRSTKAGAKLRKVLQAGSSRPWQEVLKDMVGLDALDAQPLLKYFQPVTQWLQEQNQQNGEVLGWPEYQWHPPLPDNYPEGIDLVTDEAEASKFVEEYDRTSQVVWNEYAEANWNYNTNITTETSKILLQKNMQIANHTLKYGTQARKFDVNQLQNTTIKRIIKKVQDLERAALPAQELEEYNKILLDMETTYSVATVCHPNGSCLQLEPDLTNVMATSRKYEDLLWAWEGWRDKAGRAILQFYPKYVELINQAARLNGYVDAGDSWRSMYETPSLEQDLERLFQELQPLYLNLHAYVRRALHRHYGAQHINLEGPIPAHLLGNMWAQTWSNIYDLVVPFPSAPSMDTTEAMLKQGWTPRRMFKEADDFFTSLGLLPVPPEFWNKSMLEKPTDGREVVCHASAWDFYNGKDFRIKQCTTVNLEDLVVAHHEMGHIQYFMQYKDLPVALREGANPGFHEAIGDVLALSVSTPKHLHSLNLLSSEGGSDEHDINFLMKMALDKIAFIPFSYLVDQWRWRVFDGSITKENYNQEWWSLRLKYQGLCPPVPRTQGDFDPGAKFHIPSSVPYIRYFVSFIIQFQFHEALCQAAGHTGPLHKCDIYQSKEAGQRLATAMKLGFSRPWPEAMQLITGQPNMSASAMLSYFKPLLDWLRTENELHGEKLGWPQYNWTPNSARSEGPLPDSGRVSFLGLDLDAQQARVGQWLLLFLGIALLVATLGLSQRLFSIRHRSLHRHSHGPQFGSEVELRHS
Experiment [4] has as its system ACE. Description: Response of 3H-benzoylPheAlaPro hydrolysis to ions. The class given is biochemical. As to the method:
An even more sensitive assay for ACE activity has been developed using the novel compound ^3 H-benzoylPheAlaPro as substrate. This new substrate can be used to assay ACE in human urine in incubations as short as 15 minutes. The response of this substrate to ions is strikingly different from the response of HipHisLeu. […] This difficulty has been solved by the proper choice of extracting solvent. While a variety of organic solvents may be suitable for the extraction step, it is preferred to employ toluene. Approximately 88% of ^3 H-benzoylPhe enters the toluene phase while only 6% of the unhydrolyzed substrate enters the toluene phase, when toluene and the acidified reaction mixtures are in approximately equal volumes at room temperature.
The enzyme is active over a broad pH range with a maximum around pH 8.0, but is at least about 50% active in the range pH 7.0-pH 8.8, for both HipHisLeu and benzoylPheAlaPro. Although the enzyme is active in a variety of buffer systems known in the art, it is preferred for convenience, when using benzoylPheAlaPro as substrate, to conduct the assays in 0.05 M Hepes buffer, pH 8.0 containing 0.15 M sodium chloride. Detailed protocols for carrying out the assay are given in the examples. […] The preferred concentration range is 1×10^-9 M to 7×10^-5 M.

Take `CC(C)C[C@H](NC(=O)[C@H](Cc1c[nH]cn1)NC(=O)CNC(=O)c1ccccc1)C(=O)O` [HipHisLeu] (Bz-Gly-His-Leu-OH): the “Reaction Velocity-Percent of Substrate Hydrolyzed in 10 minutes” value (“Reaction Velocity-Percent” for short) is 0% in experiment [1] (HipHisLeu, 0.05M Hepes, pH 8.0, 0.0M NaCl, Na2 SO4 concentration 0); 0% in experiment [1] (HipHisLeu, 0.05M Hepes, pH 8.0, 0.0M NaCl, Na2 SO4 concentration 0.1); 0% in experiment [1] (HipHisLeu, 0.05M Hepes, pH 8.0, 0.0M NaCl, Na2 SO4 concentration 0.2); 0% in experiment [1] (HipHisLeu, 0.05M Hepes, pH 8.0, 0.0M NaCl, Na2 SO4 concentration 0.3); 0.1% in experiment [1] (HipHisLeu, 0.05M Hepes, pH 8.0, 0.0M NaCl, Na2 SO4 concentration 0.4); 0.1% in experiment [1] (HipHisLeu, 0.05M Hepes, pH 8.0, 0.0M NaCl, Na2 SO4 concentration 0.5). The “Reaction Velocity-Percent” value amounted to 0.25% in experiment [1] (HipHisLeu, 0.05M Hepes, pH 8.0, 0.0M NaCl, Na2 SO4 concentration 0.6); 0.25% in experiment [1] (HipHisLeu, 0.05M Hepes, pH 8.0, 0.0M NaCl, Na2 SO4 concentration 0.7); 0.25% in experiment [1] (HipHisLeu, 0.05M Hepes, pH 8.0, 0.0M NaCl, Na2 SO4 concentration 0.75); 0.25% in experiment [1] (HipHisLeu, 0.05M Hepes, pH 8.0, 0.0M NaCl, Na2 SO4 concentration 0.8); 0.7% in experiment [1] (HipHisLeu, 0.05M Hepes, pH 8.0, 0.0M NaCl, Na2 SO4 concentration 0.9); 3.9% in experiment [1] (HipHisLeu, 0.05M Hepes, pH 8.0, 0.0M NaCl, Na2 SO4 concentration 1.2). Further, the “Reaction Velocity-Percent” value in experiment [1] (HipHisLeu, 0.05M Hepes, pH 8.0, 0.1M NaCl, Na2 SO4 concentration 0) was 0.3%; in experiment [1] (HipHisLeu, 0.05M Hepes, pH 8.0, 0.1M NaCl, Na2 SO4 concentration 0.4), 4.1%; in experiment [1] (HipHisLeu, 0.05M Hepes, pH 8.0, 0.1M NaCl, Na2 SO4 concentration 0.6), 8.3%; in experiment [1] (HipHisLeu, 0.05M Hepes, pH 8.0, 0.1M NaCl, Na2 SO4 concentration 0.75), 12.05%; in experiment [1] (HipHisLeu, 0.05M Hepes, pH 8.0, 0.1M NaCl, Na2 SO4 concentration 0.9), 12.25%. The inhibition of hydrolysis in experiment [2] is given as 92%; in experiment [3], 86%.
As to `C[C@H](NC(=O)[C@H](Cc1ccccc1)NC(=O)c1ccccc1)C(=O)N1CCC[C@H]1C(=O)O` [benzoylPheAlaPro, benzoyl-Phe-Ala-Pro] (Bz-Phe-Ala-Pro-OH), the “Reaction Velocity-Percent” value in experiment [1] (benzPheAlaPro, 0.05 Hepes, pH 8.0, 0.15M HCl, Na2 SO4 concentration 0) came to 4.4%; in experiment [1] (benzPheAlaPro, 0.05 Hepes, pH 8.0, 0.15M HCl, Na2 SO4 concentration 0.1), 5.0%; in experiment [1] (benzPheAlaPro, 0.05 Hepes, pH 8.0, 0.15M HCl, Na2 SO4 concentration 0.2), 4.45%; in experiment [1] (benzPheAlaPro, 0.05 Hepes, pH 8.0, 0.15M HCl, Na2 SO4 concentration 0.3), 4.85%; in experiment [1] (benzPheAlaPro, 0.05 Hepes, pH 8.0, 0.15M HCl, Na2 SO4 concentration 0.5), 5.6%. Moreover, in experiment [4] (3H-benzoylPheAlaPro as substrate), the “effect of sodium sulfate on hydrolysis” value is “not stimulatory”. The “increase of apparent reaction velocity by added sodium chloride” value in experiment [4] (added sodium chloride at 0.05 M, 0.05 M Hepes buffer at pH 8.0) was “approximately 3 fold”.
